# Measured values taken from patent publication US12685735B2 (Foghorn Therapeutics Inc., priority 2020, dated 2026).
# Read-outs that look alike come from different tables or passages of the source.
# Tests used:
# BRM = BRM (Homo sapiens, UniProt P51531); experiment: ATPase catalytic activity assay of BRM (ADP-Glo); assay type: biochemical; conditions: for IC50: read-out: BRM IC50 (μM)*
# In short: (§1)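 Measurement is luminescence, reflecting ADP produced by ATPase turnover. The two-step ADP-Glo detection consists of ATP depletion for 40 min and ADP-to-ATP conversion with luciferase for 60 min, both at room temperature.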
# BRG-1 = BRG-1 (Homo sapiens, UniProt P51532); experiment: ATPase catalytic activity assay of BRG-1 (ADP-Glo); assay type: biochemical; conditions: ATPase catalytic activity, ADP-Glo; for IC50: read-out: BRG1 IC50 (μM)*; for Emax: read-out: BRG1 Max % Inhibition
# Sequence of BRG-1 (P51532 whole entry): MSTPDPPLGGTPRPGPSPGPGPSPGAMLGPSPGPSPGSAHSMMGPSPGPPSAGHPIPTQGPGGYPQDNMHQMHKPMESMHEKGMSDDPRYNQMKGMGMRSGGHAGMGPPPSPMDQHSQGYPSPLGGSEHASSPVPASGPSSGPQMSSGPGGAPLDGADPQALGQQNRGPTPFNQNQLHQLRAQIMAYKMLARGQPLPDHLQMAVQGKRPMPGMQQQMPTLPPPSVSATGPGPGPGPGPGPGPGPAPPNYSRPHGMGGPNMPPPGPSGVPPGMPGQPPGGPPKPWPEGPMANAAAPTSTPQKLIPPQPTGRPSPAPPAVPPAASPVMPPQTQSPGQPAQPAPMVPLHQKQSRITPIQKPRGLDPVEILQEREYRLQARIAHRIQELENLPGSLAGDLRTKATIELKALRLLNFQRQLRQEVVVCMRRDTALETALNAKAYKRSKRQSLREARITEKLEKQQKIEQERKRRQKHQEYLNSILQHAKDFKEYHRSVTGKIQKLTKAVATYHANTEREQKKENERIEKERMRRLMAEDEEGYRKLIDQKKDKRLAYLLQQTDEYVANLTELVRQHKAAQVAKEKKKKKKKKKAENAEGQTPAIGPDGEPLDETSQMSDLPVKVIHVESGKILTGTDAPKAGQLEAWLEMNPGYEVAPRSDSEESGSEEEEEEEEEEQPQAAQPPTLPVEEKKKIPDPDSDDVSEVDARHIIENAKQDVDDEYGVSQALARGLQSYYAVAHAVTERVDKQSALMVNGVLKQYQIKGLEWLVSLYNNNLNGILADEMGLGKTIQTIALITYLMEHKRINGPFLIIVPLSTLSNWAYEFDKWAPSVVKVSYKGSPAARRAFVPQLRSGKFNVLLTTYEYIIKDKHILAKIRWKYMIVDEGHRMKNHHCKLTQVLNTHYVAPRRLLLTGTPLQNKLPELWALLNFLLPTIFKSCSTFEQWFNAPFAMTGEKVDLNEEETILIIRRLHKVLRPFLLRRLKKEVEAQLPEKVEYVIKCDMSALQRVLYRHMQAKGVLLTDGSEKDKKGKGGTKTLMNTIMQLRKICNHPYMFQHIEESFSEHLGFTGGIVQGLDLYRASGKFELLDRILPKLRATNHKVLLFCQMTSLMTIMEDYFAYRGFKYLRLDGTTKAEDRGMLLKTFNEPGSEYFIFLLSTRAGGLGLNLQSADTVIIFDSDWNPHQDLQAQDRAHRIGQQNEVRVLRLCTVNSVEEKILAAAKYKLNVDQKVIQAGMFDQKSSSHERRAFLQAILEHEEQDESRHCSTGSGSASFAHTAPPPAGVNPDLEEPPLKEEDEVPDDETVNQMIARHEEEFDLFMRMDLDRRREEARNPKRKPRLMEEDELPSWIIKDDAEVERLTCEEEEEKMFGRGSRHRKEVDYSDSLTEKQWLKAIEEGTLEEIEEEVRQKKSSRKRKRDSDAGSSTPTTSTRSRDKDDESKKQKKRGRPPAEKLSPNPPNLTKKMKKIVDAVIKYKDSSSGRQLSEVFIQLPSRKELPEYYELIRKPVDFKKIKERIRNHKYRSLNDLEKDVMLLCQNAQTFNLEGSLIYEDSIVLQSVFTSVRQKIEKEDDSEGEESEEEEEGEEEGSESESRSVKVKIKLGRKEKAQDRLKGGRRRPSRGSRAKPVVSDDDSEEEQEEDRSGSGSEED
# In short: as §1
# Sequence of BRM (P51531 whole entry): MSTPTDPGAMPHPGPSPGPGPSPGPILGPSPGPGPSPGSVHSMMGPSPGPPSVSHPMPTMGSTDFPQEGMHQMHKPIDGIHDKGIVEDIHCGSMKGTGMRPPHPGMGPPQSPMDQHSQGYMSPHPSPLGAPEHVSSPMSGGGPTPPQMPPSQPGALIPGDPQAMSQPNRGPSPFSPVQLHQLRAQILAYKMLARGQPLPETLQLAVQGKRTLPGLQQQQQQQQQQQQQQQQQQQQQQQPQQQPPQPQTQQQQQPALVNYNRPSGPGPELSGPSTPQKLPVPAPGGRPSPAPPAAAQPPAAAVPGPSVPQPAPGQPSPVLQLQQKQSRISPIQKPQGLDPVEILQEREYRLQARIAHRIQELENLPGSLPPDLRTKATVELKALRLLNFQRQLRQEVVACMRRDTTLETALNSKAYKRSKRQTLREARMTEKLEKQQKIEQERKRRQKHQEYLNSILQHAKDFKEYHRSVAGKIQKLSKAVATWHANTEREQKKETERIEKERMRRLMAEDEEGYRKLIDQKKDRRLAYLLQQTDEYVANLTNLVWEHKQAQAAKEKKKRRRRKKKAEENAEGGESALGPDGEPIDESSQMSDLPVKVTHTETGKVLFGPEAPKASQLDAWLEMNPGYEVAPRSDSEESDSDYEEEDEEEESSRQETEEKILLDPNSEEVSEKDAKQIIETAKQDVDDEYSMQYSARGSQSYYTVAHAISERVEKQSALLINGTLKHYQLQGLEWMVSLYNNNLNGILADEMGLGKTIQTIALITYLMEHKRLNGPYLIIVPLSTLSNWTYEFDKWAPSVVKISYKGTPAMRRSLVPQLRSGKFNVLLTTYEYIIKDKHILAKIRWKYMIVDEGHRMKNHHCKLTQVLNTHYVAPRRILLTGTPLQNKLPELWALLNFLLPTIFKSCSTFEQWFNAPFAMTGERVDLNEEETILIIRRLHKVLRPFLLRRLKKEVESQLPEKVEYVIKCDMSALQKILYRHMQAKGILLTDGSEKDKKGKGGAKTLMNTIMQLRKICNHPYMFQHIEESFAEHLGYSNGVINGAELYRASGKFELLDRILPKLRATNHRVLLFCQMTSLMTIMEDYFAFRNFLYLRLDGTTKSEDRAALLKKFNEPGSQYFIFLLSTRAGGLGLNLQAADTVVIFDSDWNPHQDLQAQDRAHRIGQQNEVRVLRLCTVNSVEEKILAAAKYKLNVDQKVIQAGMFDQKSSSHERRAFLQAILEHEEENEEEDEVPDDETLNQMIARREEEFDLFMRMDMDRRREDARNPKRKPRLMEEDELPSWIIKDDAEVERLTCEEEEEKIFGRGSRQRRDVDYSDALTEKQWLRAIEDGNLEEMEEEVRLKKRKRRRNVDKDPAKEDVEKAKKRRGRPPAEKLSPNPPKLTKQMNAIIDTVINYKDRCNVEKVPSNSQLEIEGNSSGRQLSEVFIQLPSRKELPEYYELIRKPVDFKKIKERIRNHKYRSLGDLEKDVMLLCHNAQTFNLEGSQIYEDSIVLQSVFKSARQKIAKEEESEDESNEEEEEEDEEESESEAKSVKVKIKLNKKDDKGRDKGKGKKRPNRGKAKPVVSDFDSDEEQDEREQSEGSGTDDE
Compound,BRM Max % Inhibition (BRM) [%],IC50 (BRM) [µM],IC50 (BRG-1) [µM],Emax (BRG-1) [%],BRG1 Max % Inhibition (BRG-1) [%],"BRM Max % Inhibition (BRM; 30 nM BRM, 400 μM ATP) [%]","IC50 (BRM; 30 nM BRM, 400 μM ATP) [µM]","IC50 (BRG-1; 30 nM BRG-1, 400 μM ATP) [µM]","Emax (BRG-1; 30 nM BRG-1, 400 μM ATP) [%]"
"Cc1cc(-c2cccc(-c3csc(NC(=O)CNC(=O)c4ccc(Cl)c(C(C)(C)CO)c4)n3)n2)ncn1 [Compound 216, 4-chloro-3-(2-hydroxy-1,1-dimethyl-ethyl)-N-[2-[[4-[6-(6-methylpyrimidin-4-yl)-2-pyridyl]thiazol-2-yl]amino]-2-oxo-ethyl]benzamide]",>95,< 0.1,0.1 to 1,> 95,–,–,–,–,–
"C[C@@]1(C#N)COCc2ccc(C(=O)NCC(=O)Nc3nc(-c4cccc(N5CC6(CCO6)C5)c4)cs3)cc21 [Compound 348, (R)-N-(2-((4-(3-(1-oxa-6-azaspiro[3.3]heptan-6-yl)phenyl)thiazol-2-yl)amino)-2-oxoethyl)-4-cyano-4-methylisochromane-6-carboxamide]",>95,< 0.1,0.1 to 1,> 95,–,–,–,–,–
"O=C(CNC(=O)c1ccc2c(c1)[C@@](F)(C(F)F)COC2)Nc1nc(-c2cc(F)cc(N3CCC3)c2)cs1 [Compound 277, (S)-N-(2-((4-(3-(azetidin-1-yl)-5-fluorophenyl)thiazol-2-yl)amino)-2-oxoethyl)-4-(difluoromethyl)-4-fluoroisochromane-6-carboxamide]",>95,< 0.1,< 0.1,> 95,–,–,–,–,–
"C[C@@H]1CN(c2cc(F)cc(-c3csc(NC(=O)CNC(=O)c4ccc(F)c(C(C)(C)CO)c4)n3)c2)C[C@H](C)O1 [Compound 198, N-(2-((4-(3-((cis)-2,6-dimethylmorpholino)-5-fluorophenyl)thiazol-2-yl)amino)-2-oxoethyl)-4-fluoro-3-(1-hydroxy-2-methylpropan-2-yl)benzamide]",>95,< 0.1,0.1 to 1,> 95,–,–,–,–,–
Cc1cc(-c2cccc(-c3csc(NC(=O)CNC(=O)c4cccc(C(C)(C)CO)c4)n3)c2)nc(C)n1 [Compound 94],>95,< 0.1,< 0.1,–,>95,–,–,–,–
"C[C@@H]1CN(c2cccc(-c3csc(NC(=O)CNC(=O)c4ccc(Cl)c(C(C)(C)CO)c4)n3)c2)C[C@H](C)O1 [Compound 244, 4-chloro-N-[2-[[4-[3-[(cis)-2,6-dimethylmorpholin-4-yl]phenyl]thiazol-2-yl]amino]-2-oxo-ethyl]-3-(2-hydroxy-1,1-dimethyl-ethyl)benzamide]",>95,< 0.1,0.1 to 1,> 95,–,–,–,–,–
"CC(C)(CN)c1cccc(C(=O)NCC(=O)Nc2nc(-c3cccc(CO[C@H]4CC[C@H](O)CC4)c3)cs2)c1 [Compound 62, 3-(1-amino-2-methylpropan-2-yl)-N-(2-((4-(3-((((1R,4R)-4-hydroxycyclohexyl)oxy)methyl)phenyl)thiazol-2-yl)amino)-2-oxoethyl)benzamide]",>80,1 to 5,> 5,> 40,–,–,–,–,–
"CN1C[C@@](C)(C#N)c2cc(C(=O)NCC(=O)Nc3nc(-c4cc(F)cc(N5CCC5)c4)cs3)ccc21 [Compound 289, (S)-N-(2-((4-(3-(azetidin-1-yl)-5-fluorophenyl)thiazol-2-yl)amino)-2-oxoethyl)-3-cyano-1,3-dimethylindoline-5-carboxamide]",>95,< 0.1,< 0.1,> 95,–,–,–,–,–
"C[C@@H]1CN(c2cccc(-c3csc(NC(=O)CNC(=O)c4cccc(C5(C(F)F)CCOC5)c4)n3)c2)C[C@H](C)O1 (stereo partly drawn) [Compound 345, 3-(3-(difluoromethyl)tetrahydrofuran-3-yl)-N-(2-((4-(3-((cis)-2,6-dimethylmorpholino)phenyl)thiazol-2-yl)amino)-2-oxoethyl)benzamide]",>95,< 0.1,1 to 5,> 95,–,–,–,–,–

# Results, then the compound that gave them:
BRM Max % Inhibition (BRM) [%],IC50 (BRM) [µM],IC50 (BRG-1) [µM],Emax (BRG-1) [%],BRG1 Max % Inhibition (BRG-1) [%],"BRM Max % Inhibition (BRM; 30 nM BRM, 400 μM ATP) [%]","IC50 (BRM; 30 nM BRM, 400 μM ATP) [µM]","IC50 (BRG-1; 30 nM BRG-1, 400 μM ATP) [µM]","Emax (BRG-1; 30 nM BRG-1, 400 μM ATP) [%]",Compound
>95,0.1 to 1,1 to 5,> 90,–,–,–,–,–,CC1(C(N)=O)CCc2ccc(C(=O)NCC(=O)Nc3nc(-c4cccc(-c5ccncc5)c4)cs3)cc21 (centres unmarked) [Compound 96]
>95,< 0.1,1 to 5,> 80,–,–,–,–,–,"C[C@@H]1CN(c2cccc(-c3csc(NC(=O)CNC(=O)c4ccc5c(c4)[C@](C)(CO)CC5)n3)n2)C[C@H](C)O1 [Compound 223, (R)-N-(2-((4-(6-((cis)-2,6-dimethylmorpholino)pyridin-2-yl)thiazol-2-yl)amino)-2-oxoethyl)-3-(hydroxymethyl)-3-methyl-2,3-dihydro-1H-indene-5-carboxamide]"
>80,0.1 to 1,> 5,> 40,–,–,–,–,–,"Cc1nccc(-c2cccc(-c3csc(NC(=O)CNC(=O)c4ccc5c(c4)[C@@](C)(CO)CCC5)n3)n2)n1 [Compound 211, (4S)-4-(hydroxymethyl)-4-methyl-N-[2-[[4-[6-(2-methylpyrimidin-4-yl)-2-pyridyl]thiazol-2-yl]amino]-2-oxo-ethyl]tetralin-6-carboxamide]"
>80,0.1 to 1,> 5,> 40,–,–,–,–,–,"Cc1cc(-c2cccc(-c3csc(NC(=O)CNC(=O)c4ccc5c(c4)[C@](C)(CN)CCC5)n3)c2)cc(C)n1 [Compound 225, (4R)-4-(aminomethyl)-N-[2-[[4-[3-(2,6-dimethyl-4-pyridyl)phenyl]thiazol-2-yl]amino]-2-oxo-ethyl]-4-methyl-tetralin-6-carboxamide]"
>95,< 0.1,0.1 to 1,> 95,–,–,–,–,–,"C[C@@]1(C#N)COCc2ccc(C(=O)NCC(=O)Nc3nc(-c4cccc(F)c4)cs3)cc21 [Compound 322, (R)-4-cyano-N-(2-((4-(3-fluorophenyl)thiazol-2-yl)amino)-2-oxoethyl)-4-methylisochromane-6-carboxamide]"
>70,1 to 5,> 5,> 30,–,–,–,–,–,"Cn1cnc2ccc(-c3csc(NC(=O)CNC(=O)c4ccc5c(c4)[C@@](C)(CO)CC5)n3)cc21 [Compound 257, (S)-3-(hydroxymethyl)-3-methyl-N-(2-((4-(1-methyl-1H-benzo[d]imidazol-6-yl)thiazol-2-yl)amino)-2-oxoethyl)-2,3-dihydro-1H-indene-5-carboxamide]"
>95,0.1 to 1,0.1 to 1,> 80,–,–,–,–,–,"CN1CCc2ccc(-c3csc(NC(=O)CNC(=O)c4ccc5c(c4)C(C)(CO)CC5)n3)cc2C1=O (stereo in doubt) [Compound 176, (R)-3-(hydroxymethyl)-3-methyl-N-(2-((4-(2-methyl-1-oxo-1,2,3,4-tetrahydroisoquinolin-7-yl)thiazol-2-yl)amino)-2-oxoethyl)-2,3-dihydro-1H-indene-5-carboxamide]"
–,–,–,–,–,>95,< 0.1,0.1 to 1,> 95,"COc1cccc(-c2csc(NC(=O)CNC(=O)c3ccc4c(c3)C(C)(C#N)CCO4)n2)c1 (stereo in doubt) [Compound 431, (S)-4-cyano-N-(2-((4-(3-methoxyphenyl)thiazol-2-yl)amino)-2-oxoethyl)-4-methylchromane-6-carboxamide]"
